Assay results as given in ChEMBL document CHEMBL5154637, “Peptidomimetic α-Acyloxymethylketone Warheads with Six-Membered Lactam P1 Glutamine Mimic: SARS-CoV-2 3CL Protease Inhibition, Coronavirus Antiviral Activity, and in Vitro Biological Stability” (J Med Chem, 2022).

Assays:
[1] = Metabolic stability in human plasma assessed as half life measured upto 2 hrs by LC-MS analysis; format: ADME, cell-free
[2] = Metabolic stability in human plasma measured at 2 hrs by LC-MS analysis; format: ADME, cell-free; settings: read-out: Stability
[3] = test system: SARS-CoV-2; assay: microbe, parasite or virus in culture; settings: Severe acute respiratory syndrome coronavirus 2, Vero C1008, 48 h
[4] = Dissociation constant, pKa of the compound; format: physicochemical
[5] = target: Replicase polyprotein 1ab (Severe acute respiratory syndrome coronavirus 2, UniProt P0DTD1); assay: Inhibition of SARS-CoV-2 3CL protease incubated for 30 mins by FRET assay
[6] = Lipophilicity, log D of the compound at phosphate buffer pH 7.4 by shake flask method based LC-MS/MS analysis; format: physicochemical
[7] = Antiviral activity against Human coronavirus OC43 infected in human Huh-7 cells assessed as reduction in virus-induced cytopathic effect incubated for 7 days by Celltiter-Glo assay; format: functional, cell-based; settings: Betacoronavirus 1, OC43, Huh-7, 168 h
[8] = in vitro; settings: human, A549 cells
[9] = Cytotoxicity against human MRC5 cells assessed as reduction in cell viability incubated for 24 hrs by Celltiter-glo luminescent cell viability assay; format: toxicity, cell-based
[10] = Metabolic stability in CD-1 mouse liver microsomes assessed as half life at 1 uM measured upto 60 mins in absence of NADPH by LC-MS/MS analysis; format: ADME, Microsome
[11] = test system: Human coronavirus 229E; assay: Antiviral activity against Human coronavirus 229E infected in human MRC5 cells assessed as reduction in virus-induced cytopathic effect incubated for 3 days by Celltiter-Glo assay; format: functional, organism-based; settings: MRC5, 72 h
[12] = Metabolic stability in CD-1 mouse Hepatocytes assessed as half life at 3 uM measured upto 90 mins by LC-MS/MS analysis; format: ADME, cell-based, Hepatocyte; settings: for half-life at 3 µM: CD-1, mouse
[13] = Cytotoxicity against human Huh-7 cells assessed as reduction in cell viability incubated for 24 hrs by Celltiter-glo luminescent cell viability assay; format: toxicity, cell-based
[14] = Microsomal stability in CD-1 mouse liver microsomes assessed as half life at 1 uM measured upto 60 mins in presence of NADPH by LC-MS/MS analysis; format: ADME, Microsome; settings: for Stability: mouse, microsomes, 1 h, 1 µM; for half-life at 1 µM: CD-1, mouse, liver microsomes
[15] = Stability in CD-1 mouse plasma assessed as half life at 2 uM measured upto 120 mins by LC-MS/MS analysis; format: ADME, cell-free
[16] = Apparent permeability from basolateral to apical side in human Caco-2 cells at 2 uM with pH 7.4 incubated for 2 hrs by LC-MS analysis; format: ADME, cell-based; settings: for permeability: caco-2, pH 7.4, 2 h, 2 µM; for Papp B→A at 2 h, 2 µM: Caco-2, pH 7.4
[17] = in vitro; settings: chlorocebus sabaeus, Vero E6 cells
[18] = Selectivity index, ratio of CC50 for cytotoxicity against African green monkey VeroE6 cells assessed as reduction in cell viability to EC50 for antiviral activity against SARS-CoV-2 3CL protease; format: toxicity, cell-based
[19] = target: T1, Cathepsin S (Homo sapiens, UniProt P25774); assay: Inhibition of human cathepsin S at 1 uM incubated for 30 mins by fluorometric analysis
Target sequence in this assay (P25774 115-331 limits assumed): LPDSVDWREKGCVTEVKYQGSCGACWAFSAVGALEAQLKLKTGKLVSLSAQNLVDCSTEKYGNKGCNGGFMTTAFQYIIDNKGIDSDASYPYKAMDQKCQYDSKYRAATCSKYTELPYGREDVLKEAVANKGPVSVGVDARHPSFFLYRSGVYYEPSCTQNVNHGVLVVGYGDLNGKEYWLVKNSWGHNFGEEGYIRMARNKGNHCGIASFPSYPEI

[20] = target: T1, Cathepsin S; assay: Inhibition of human cathepsin S incubated for 30 mins by fluorometric analysis
Target sequence in this assay (P25774 whole entry): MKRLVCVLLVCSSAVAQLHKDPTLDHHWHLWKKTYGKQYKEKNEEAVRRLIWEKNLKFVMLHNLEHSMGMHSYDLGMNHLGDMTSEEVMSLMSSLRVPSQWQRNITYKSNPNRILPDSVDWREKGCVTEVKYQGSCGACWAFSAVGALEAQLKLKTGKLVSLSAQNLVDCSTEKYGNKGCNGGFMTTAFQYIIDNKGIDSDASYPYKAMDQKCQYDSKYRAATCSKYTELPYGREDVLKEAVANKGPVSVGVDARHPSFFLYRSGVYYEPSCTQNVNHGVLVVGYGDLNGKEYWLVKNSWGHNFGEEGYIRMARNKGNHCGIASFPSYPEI

[21] = target: T2, Cathepsin B (Homo sapiens, UniProt P07858); assay: Inhibition of human cathepsin B incubated for 30 mins by fluorometric analysis
[22] = Selectivity index, ratio of CC50 for cytotoxicity against human A549 cells assessed as reduction in cell viability to EC50 for antiviral activity against SARS-CoV-2 3CL protease; format: toxicity, cell-based; settings: read-out: Ratio CC50/EC50
[23] = target: T2, Cathepsin B; assay: Inhibition of human cathepsin B at 1 uM incubated for 30 mins by fluorometric analysis
[24] = Efflux ratio of apparent permeability across basal to apical membrane over apical to basal membrane in human Caco-2 cells at 2 uM with pH 7.4 incubated for 2 hrs by LC-MS analysis; format: ADME, cell-based; settings: caco-2, pH 7.4, 2 h
[25] = Stability of compound in glutathione at pH 7.4 after 24 hrs by LC-MS analysis; format: physicochemical; settings: read-out: Stability
[26] = in vitro; settings: human, Huh-7 cells

SMILES	remaining at 2 h [2] [%]	EC50 [3] [nM]	pKa [4]	IC50 [5] [nM]	EC50 [7] [nM]	CC50 at 24 h [8] [nM]	CC50 at 24 h [9] [nM]	EC50 [11] [nM]	CC50 at 24 h [13] [nM]	CC50 at 24 h [17] [nM]	inhibition [19] [%]	inhibition [23] [%]	further results
COc1cccc2[nH]c(C(=O)N[C@@H](CC(C)C)C(=O)N[C@@H](C[C@@H]3CCCNC3=O)C(=O)COC(=O)C(C)(C)C#N)cc12	0	> 10000	2.4										half-life [1]: < 15 min
COc1cccc2[nH]c(C(=O)N[C@@H](CC(C)C)C(=O)N[C@@H](C[C@@H]3CCCNC3=O)C(=O)COC(=O)c3ccncc3)cc12		> 10000	1.77	32.9									
COc1cccc2[nH]c(C(=O)N[C@@H](CC(C)C)C(=O)N[C@@H](C[C@@H]3CCCNC3=O)C(=O)COC(=O)c3c(Cl)cccc3Cl)cc12			1.26		35	> 200000	> 100000	21	> 100000	> 200000			logD [6]: > 5.07; half-life at 1 µM ([10]; CD-1, mouse, liver microsomes): < 180 min; half-life at 3 µM [12]: 2.3 min; Stability [14]: Unstable; half-life at 2 µM [15]: 170 min; permeability [16]: Impermeable
COc1cccc2[nH]c(C(=O)N[C@@H](CC(C)C)C(=O)N[C@@H](C[C@@H]3CCCNC3=O)C(=O)COC(=O)c3c(C(F)(F)F)cccc3C(F)(F)F)cc12	100	160	1.9		47	> 200000	> 100000	29	94600	> 200000	96.8	91.3	selectivity ratio ([18]; read-out: Ratio CC50/EC50): > 1250; IC50 [20]: 116 nM; IC50 [21]: 464 nM; selectivity ratio [22]: > 1250
COc1cccc2[nH]c(C(=O)N[C@@H](CC(C)C)C(=O)N[C@@H](C[C@@H]3CCCNC3=O)C(=O)COC(=O)c3c(C)nn(C)c3C)cc12		> 10000	2.2	71.5									
COc1cccc2[nH]c(C(=O)N[C@@H](CC(C)C)C(=O)N[C@@H](C[C@@H]3CCCNC3=O)C(=O)COC(=O)c3ccccn3)cc12		> 10000	0.99	126									
COc1cccc2[nH]c(C(=O)N[C@@H](CC(C)C)C(=O)N[C@@H](C[C@@H]3CCCNC3=O)C(=O)COC(=O)c3c(C(F)(F)F)cc(C)nc3C)cc12	99	470	1.7		45	> 200000	> 100000	30	67600	> 200000	98.4	95	selectivity ratio ([18]; read-out: Ratio): > 426; logD [6]: 4.11; half-life at 3 µM [12]: 1.9 min; half-life at 1 µM [14]: 1 min; Ratio [24]: 1146; selectivity ratio [22]: > 426; half-life at 2 µM [15]: > 289 min; Papp B→A at 2 h, 2 µM [16]: 28.9 ×10⁻⁶ cm/s; remaining at 24 h [25]: > 80%
O=C[C@H](C[C@@H]1CCNC1=O)NC(=O)[C@H](CC1CCCCC1)NC(=O)OCc1cccc(Cl)c1											99.3	72.5	
COc1cccc2[nH]c(C(=O)N[C@@H](CC(C)C)C(=O)N[C@@H](C[C@@H]3CCCNC3=O)C(=O)COC(=O)C(C)(C)C)cc12	100	> 10000	5.03										
COc1cccc2[nH]c(C(=O)N[C@@H](CC(C)C)C(=O)N[C@@H](C[C@@H]3CCCNC3=O)C(=O)COC(=O)c3ccccc3)cc12	67	> 10000	4.2								41	16.2	half-life [1]: 209 min
COc1cccc2[nH]c(C(=O)N[C@@H](CC(C)C)C(=O)N[C@@H](C[C@@H]3CCCNC3=O)C(=O)COC(=O)C3(C(F)(F)F)CCCCC3)cc12	97	600	3.4		395	> 200000	> 100000	196	> 100000	> 200000	84.2	38.6	selectivity ratio ([18]; read-out: Ratio CC50/EC50): > 333; IC50 [20]: 444 nM; IC50 [21]: 2850 nM; selectivity ratio [22]: > 333
COc1cccc2[nH]c(C(=O)N[C@@H](CC(C)C)C(=O)N[C@@H](C[C@@H]3CCCNC3=O)C(=O)COC(=O)C(C)(C)C(F)(F)F)cc12	25	> 5000	3.2		195	> 200000	> 100000	112	94600	> 200000			logD [6]: 4.89; half-life [1]: 67 min; Stability ([10]; mouse, microsomes, 1 h, 1 µM): Unstable; Stability ([12]; mouse, 1.5 h, 3 µM): Unstable; Stability [14]: Unstable; half-life at 2 µM [15]: 11.6 min; permeability [16]: Impermeable
COc1cccc2[nH]c(C(=O)N[C@@H](CC(C)C)C(=O)N[C@@H](C[C@@H]3CCCNC3=O)C(=O)CO)cc12		10100		19.5		> 200000				> 200000	60.8	26.5	
COc1cccc2[nH]c(C(=O)N[C@@H](CC(C)C)C(=O)N[C@@H](C[C@@H]3CCCNC3=O)C(=O)COC(=O)c3c(C)nc(C)nc3C)cc12			2			> 200000				> 200000			
COc1cccc2[nH]c(C(=O)N[C@@H](CC(C)C)C(=O)N[C@@H](C[C@@H]3CCCNC3=O)C(=O)COC(=O)C3(C)OCCCO3)cc12		> 10000	2.7	12.5									
COc1cccc2[nH]c(C(=O)N[C@@H](CC(C)C)C(=O)N[C@@H](C[C@@H]3CCNC3=O)C(=O)COC(=O)c3c(C(F)(F)F)cc(C)nc3C)cc12					33	> 201000	> 100000	13	44900	> 200000			logD [6]: 4.57; half-life at 3 µM [12]: 1.9 min; half-life at 1 µM [14]: 1.1 min; half-life at 2 µM [15]: > 289 min; Papp B→A at 2 h, 2 µM [16]: 24.3 ×10⁻⁶ cm/s
COc1cccc2[nH]c(C(=O)N[C@@H](CC(C)C)C(=O)N[C@@H](C[C@@H]3CCCNC3=O)C(=O)COC(=O)c3cccnc3)cc12	2	> 10000	2										half-life [1]: < 15 min
COc1cccc2[nH]c(C(=O)N[C@@H](CC(C)C)C(=O)N[C@@H](C[C@@H]3CCCNC3=O)C(=O)COC(=O)c3c(C)cc(C)nc3C)cc12	100		1.7	19	54	> 200000	> 100000	48	> 100000	> 200000	98.1	86.7	logD [6]: 4.41; IC50 [20]: 51.5 nM; half-life at 3 µM [12]: 2.7 min; half-life at 1 µM [14]: 1.1 min; IC50 [21]: 201 nM; half-life at 2 µM [15]: > 289 min; Papp B→A at 2 h, 2 µM [16]: 21.8 ×10⁻⁶ cm/s; remaining at 24 h [25]: > 80%
CCC(CC)COC(=O)[C@H](C)N[P@](=O)(OC[C@H]1O[C@@](C#N)(c2ccc3c(N)ncnn23)[C@H](O)[C@@H]1O)Oc1ccccc1					20		> 100000	35	10400				selectivity ratio [26]: 518
CC(=O)OCC(=O)[C@H](C[C@@H]1CCNC1=O)NC(=O)[C@H](CC(C)C)NC(=O)OCc1cccc(Cl)c1		21500		1500		> 200000				> 200000			
